# Results as given in ChEMBL document CHEMBL1201862, “PubChem BioAssay data set” (2004).
# Active and inactive are the calls of the source.
# What was measured:
# [1] = biological target: T1, Calpain-2 catalytic subunit (Sus scrofa, UniProt P43367); experiment: pig calpain II inhibitor potency, dose response, biochemical, fluorogenic peptide substrate (AID 1420); format: functional
# T1 sequence (P43367 whole entry): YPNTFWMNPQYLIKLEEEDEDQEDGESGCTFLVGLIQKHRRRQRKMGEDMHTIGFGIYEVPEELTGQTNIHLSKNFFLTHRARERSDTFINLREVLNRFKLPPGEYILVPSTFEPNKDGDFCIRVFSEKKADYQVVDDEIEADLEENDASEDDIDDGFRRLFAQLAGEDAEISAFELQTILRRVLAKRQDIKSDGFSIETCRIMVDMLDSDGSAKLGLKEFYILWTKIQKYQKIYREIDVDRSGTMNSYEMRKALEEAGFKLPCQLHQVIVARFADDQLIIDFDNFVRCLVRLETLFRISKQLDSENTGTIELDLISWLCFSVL
# [2] = Vero cell cytotoxicity, dose response, cytotoxicity control for Vif-APOBEC3G degradation inhibitor project, Vero cells (AID 1117358); format: functional; details: Human immunodeficiency virus 1, Vero
# [3] = biological target: T2, Aminopeptidase N (Plasmodium falciparum FcB1/Columbia, UniProt O96935); experiment: P. falciparum M1AAP inhibitors, biochemical, fluorogenic H-Leu-NHMec substrate, 1536-well (AID 1445); design: species or system Plasmodium falciparum 3D7, 3D7
# T2 sequence (O96935 whole entry): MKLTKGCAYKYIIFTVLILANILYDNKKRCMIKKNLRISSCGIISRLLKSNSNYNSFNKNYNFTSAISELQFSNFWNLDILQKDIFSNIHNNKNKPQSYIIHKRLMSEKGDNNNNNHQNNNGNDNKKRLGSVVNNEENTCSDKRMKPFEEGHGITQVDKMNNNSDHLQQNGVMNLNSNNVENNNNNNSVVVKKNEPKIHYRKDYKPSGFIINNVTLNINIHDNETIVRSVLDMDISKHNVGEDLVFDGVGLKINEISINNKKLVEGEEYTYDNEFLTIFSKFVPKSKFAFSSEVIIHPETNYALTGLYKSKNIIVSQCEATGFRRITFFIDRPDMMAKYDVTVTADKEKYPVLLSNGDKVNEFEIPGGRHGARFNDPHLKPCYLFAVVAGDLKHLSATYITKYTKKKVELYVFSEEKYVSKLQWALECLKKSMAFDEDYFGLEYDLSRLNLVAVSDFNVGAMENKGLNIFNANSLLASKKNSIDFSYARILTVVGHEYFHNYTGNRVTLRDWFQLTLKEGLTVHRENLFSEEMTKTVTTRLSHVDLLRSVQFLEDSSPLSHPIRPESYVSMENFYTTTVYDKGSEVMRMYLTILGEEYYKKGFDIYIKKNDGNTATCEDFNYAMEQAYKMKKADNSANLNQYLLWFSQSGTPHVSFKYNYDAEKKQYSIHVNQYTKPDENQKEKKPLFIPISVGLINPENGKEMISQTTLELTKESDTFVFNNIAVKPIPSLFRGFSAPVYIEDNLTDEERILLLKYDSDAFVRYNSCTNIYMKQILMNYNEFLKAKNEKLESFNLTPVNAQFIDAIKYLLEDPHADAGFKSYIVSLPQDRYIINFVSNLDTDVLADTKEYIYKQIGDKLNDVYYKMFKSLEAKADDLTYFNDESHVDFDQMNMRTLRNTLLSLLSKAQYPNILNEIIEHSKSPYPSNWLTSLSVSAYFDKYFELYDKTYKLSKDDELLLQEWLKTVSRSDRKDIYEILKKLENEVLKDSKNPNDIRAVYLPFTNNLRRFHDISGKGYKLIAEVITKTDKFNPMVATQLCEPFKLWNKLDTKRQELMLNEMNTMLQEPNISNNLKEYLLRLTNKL
# [4] = biological target: T3, Mannose-6-phosphate isomerase (Homo sapiens, UniProt P34949); experiment: inhibitors of human PMI, primary screen, biochemical, fluorescence intensity, coupled assay (AID 1209)
# T3 sequence (P34949 whole entry): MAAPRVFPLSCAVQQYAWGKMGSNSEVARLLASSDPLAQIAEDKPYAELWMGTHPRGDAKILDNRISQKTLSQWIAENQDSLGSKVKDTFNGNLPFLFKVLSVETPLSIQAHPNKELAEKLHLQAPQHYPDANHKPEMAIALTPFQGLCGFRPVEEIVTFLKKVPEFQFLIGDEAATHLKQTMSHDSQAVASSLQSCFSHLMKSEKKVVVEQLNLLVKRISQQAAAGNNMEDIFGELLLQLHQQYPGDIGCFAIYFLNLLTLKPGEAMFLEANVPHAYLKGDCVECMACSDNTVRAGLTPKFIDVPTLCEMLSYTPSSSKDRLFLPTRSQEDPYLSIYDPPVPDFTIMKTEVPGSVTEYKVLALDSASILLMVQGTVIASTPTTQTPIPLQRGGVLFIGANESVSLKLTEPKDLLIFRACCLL
# [5] = biological target: T4, Caspase-6 (Homo sapiens, UniProt P55212); experiment: human caspase-6 inhibitors, dose response, biochemical, VEID-R110 fluorescence, cherry-pick (AID 720632)
# T4 sequence (P55212 whole entry): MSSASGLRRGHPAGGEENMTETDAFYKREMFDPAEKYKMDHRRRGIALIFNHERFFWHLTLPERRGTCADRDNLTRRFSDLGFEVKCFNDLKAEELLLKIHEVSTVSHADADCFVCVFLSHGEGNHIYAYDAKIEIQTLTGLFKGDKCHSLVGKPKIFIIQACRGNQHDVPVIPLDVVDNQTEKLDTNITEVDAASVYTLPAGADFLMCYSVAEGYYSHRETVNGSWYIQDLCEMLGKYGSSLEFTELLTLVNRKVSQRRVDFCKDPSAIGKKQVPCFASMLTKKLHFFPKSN
# [6] = biological target: T5, Histone-lysine N-methyltransferase NSD2 (Homo sapiens, UniProt O96028); format: biochemical
# T5 sequence (O96028 whole entry): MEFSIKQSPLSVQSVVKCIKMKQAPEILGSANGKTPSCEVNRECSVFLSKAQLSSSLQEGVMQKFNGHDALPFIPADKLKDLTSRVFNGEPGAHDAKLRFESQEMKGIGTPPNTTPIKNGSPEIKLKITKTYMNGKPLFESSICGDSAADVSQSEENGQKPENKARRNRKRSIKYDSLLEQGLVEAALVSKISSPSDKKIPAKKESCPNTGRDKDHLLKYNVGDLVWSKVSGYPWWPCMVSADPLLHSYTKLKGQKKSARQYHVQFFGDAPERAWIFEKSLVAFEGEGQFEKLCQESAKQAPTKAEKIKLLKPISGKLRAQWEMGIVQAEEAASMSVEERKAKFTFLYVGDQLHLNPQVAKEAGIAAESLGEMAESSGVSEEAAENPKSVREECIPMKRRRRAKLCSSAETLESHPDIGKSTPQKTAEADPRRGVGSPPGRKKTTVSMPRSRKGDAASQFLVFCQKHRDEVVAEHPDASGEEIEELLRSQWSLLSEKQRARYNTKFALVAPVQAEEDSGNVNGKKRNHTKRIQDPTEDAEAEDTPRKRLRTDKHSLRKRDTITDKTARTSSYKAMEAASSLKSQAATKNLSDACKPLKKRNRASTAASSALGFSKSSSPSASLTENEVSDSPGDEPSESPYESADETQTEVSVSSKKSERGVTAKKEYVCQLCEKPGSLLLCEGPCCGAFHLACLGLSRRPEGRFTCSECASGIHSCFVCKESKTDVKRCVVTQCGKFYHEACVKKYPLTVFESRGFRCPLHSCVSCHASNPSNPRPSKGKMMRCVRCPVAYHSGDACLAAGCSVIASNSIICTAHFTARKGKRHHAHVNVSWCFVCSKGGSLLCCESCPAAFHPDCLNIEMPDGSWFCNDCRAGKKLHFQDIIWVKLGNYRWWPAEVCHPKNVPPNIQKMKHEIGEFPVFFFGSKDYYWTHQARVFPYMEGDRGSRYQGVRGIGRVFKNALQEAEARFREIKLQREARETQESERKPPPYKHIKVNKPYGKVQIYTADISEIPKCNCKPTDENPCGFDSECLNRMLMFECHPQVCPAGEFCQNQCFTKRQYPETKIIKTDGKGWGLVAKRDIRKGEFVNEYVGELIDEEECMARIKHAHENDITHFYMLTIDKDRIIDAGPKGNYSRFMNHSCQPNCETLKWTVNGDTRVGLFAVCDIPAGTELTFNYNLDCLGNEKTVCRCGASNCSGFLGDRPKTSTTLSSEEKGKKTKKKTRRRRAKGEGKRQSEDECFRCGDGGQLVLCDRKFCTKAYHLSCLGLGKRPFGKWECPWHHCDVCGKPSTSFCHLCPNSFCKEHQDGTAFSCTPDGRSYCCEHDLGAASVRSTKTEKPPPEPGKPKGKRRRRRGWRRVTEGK
# [7] = biological target: Induced myeloid leukemia cell differentiation protein Mcl-1 (Homo sapiens, UniProt Q07820); format: functional
# [8] = biological target: Albumin (Bos taurus, UniProt P02769); experiment: Counterscreen for inhibitors of T-cell receptor (TCR)-CD3 interaction: Fluorescence-based biochemical high throughput dose response assay to identify inhibitors of T-cell receptor (TCR)-CD3 interaction using a TAMRA-labeled BSA probe.; format: functional
# [9] = biological target: Large T antigen (Simian virus 40, UniProt P03070); format: functional, Betapolyomavirus macacae;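 also: Confirmatory-stage PubChem screen for compounds that inhibit SV40 T antigen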
# [10] = NIH-3T3 fibroblast cytotoxicity, dose response, cytotoxicity control, cell-based, fluorescence, Alamar Blue, secondary assay (AID 2327); format: functional;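 also: NIH-3T3 mouse fibroblasts cultured with fluconazole at 8 µg/mL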
# [11] = C. albicans growth with fluconazole, confirmation, fluorescence, retest (AID 2467); format: functional, cell-based
# [12] = biological target: E3 ubiquitin-protein ligase UHRF1 (Homo sapiens, UniProt Q96T88); experiment: Counterscreen for inhibitors of 5-meCpG-binding domain protein 2 (MBD2): TRFRET-based biochemical high throughput dose response assay to identify inhibitors of binding of ubiquitin-like with PHD and ring finger domains 1 (UHRF1) to methylated oligonucleotide.
# [13] = A549 cell cytotoxicity, dose response, CellTiter-Glo luminescence, dry powder, set 17 (AID 1117284); format: functional, cell-based
# [14] = biological target: Paired box protein Pax-8 (Homo sapiens, UniProt Q06710); experiment: inhibitors of PAX8-driven TPO luciferase reporter, dose response, RMG-I cells, cherry-pick (AID 687027); format: functional, cell-based;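 also: luciferase reporter driven by Pax8 target thyroperoxidase promoter measured by SteadyGlo luminescence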
# [15] = HEK293T cytotoxicity, dose response, cytotoxicity control for miR-122 modulator project, cell-based, activator set, cherry-pick (AID 720690); format: functional;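 also: HEK293T human cells scored for general mammalian cytotoxicity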
# [16] = NIH:OVCAR-3 ovarian cancer cell cytotoxicity, dose response, PAX8 inhibitor project, plate reader, dry powder samples (AID 743044); format: functional, cell-based
# [17] = cytotoxicity in OVCAR8 ovarian cancer cells, dose response, PAX8 project, cell-based, plate reader, dry powder samples (AID 743197); format: functional; details: OVCAR-8
# [18] = A549 cell cytotoxicity, dose response, cytotoxicity control, 24 h, CellTiter-Glo luminescence, cherry-picks (AID 1053115); format: functional, cell-based; details: A549, 24 h
# Sequence of Paired box protein Pax-8 (Q06710 whole entry): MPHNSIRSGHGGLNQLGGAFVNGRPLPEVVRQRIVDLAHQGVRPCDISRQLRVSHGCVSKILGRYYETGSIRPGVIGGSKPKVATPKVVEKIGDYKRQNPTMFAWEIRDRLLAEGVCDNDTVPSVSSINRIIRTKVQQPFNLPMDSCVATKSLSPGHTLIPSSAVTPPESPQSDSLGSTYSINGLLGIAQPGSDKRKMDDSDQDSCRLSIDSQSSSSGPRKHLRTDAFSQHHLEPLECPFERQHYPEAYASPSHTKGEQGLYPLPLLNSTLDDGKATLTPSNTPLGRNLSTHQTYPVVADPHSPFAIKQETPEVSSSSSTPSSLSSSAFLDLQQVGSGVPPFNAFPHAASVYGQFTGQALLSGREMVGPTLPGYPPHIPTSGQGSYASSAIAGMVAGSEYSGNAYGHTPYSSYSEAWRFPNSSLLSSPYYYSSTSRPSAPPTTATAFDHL
# Sequence of Large T antigen (P03070 whole entry): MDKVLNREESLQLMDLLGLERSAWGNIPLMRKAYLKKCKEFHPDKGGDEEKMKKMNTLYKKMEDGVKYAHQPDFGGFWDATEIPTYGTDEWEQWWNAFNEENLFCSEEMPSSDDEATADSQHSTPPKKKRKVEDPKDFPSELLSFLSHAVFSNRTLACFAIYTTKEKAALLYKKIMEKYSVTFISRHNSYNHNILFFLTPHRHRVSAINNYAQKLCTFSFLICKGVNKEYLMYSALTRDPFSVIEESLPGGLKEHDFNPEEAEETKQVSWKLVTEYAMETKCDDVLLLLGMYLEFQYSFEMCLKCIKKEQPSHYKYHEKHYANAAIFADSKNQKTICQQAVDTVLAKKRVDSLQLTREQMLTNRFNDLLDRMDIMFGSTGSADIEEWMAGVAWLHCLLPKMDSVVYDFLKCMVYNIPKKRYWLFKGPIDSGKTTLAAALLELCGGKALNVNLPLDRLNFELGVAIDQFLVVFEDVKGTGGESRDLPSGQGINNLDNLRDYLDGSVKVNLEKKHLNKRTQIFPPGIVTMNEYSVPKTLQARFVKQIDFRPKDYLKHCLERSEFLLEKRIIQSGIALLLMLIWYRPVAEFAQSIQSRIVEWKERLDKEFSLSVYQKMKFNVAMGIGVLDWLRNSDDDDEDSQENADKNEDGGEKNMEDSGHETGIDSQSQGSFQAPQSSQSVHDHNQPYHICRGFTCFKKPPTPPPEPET
# Sequence of Induced myeloid leukemia cell differentiation protein Mcl-1 (Q07820 whole entry): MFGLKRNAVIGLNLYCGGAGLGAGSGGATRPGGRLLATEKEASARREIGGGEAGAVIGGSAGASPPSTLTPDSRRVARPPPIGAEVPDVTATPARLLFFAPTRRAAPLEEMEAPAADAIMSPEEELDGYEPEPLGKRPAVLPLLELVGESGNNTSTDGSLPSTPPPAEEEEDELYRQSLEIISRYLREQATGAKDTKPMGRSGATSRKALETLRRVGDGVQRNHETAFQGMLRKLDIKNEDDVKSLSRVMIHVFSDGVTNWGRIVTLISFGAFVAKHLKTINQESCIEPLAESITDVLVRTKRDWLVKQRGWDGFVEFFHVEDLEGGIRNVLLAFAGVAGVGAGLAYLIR
# Sequence of Albumin (P02769 whole entry): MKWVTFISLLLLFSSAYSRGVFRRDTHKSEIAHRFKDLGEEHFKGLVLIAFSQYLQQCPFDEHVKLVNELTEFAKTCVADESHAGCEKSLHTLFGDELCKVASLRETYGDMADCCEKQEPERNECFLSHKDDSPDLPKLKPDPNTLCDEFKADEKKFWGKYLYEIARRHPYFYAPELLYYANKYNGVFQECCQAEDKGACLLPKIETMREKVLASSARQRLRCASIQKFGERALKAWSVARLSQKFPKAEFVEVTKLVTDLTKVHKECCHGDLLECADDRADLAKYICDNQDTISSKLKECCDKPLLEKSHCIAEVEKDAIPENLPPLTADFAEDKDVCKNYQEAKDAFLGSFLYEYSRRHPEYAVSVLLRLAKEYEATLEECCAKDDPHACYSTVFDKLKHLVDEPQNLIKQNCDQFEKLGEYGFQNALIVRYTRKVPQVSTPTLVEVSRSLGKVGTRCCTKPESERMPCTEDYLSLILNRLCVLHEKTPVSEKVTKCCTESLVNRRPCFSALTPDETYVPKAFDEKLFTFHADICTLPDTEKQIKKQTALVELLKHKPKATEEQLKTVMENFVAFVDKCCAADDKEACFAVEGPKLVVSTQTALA
# Sequence of E3 ubiquitin-protein ligase UHRF1 (Q96T88 whole entry, the tested form may be a part): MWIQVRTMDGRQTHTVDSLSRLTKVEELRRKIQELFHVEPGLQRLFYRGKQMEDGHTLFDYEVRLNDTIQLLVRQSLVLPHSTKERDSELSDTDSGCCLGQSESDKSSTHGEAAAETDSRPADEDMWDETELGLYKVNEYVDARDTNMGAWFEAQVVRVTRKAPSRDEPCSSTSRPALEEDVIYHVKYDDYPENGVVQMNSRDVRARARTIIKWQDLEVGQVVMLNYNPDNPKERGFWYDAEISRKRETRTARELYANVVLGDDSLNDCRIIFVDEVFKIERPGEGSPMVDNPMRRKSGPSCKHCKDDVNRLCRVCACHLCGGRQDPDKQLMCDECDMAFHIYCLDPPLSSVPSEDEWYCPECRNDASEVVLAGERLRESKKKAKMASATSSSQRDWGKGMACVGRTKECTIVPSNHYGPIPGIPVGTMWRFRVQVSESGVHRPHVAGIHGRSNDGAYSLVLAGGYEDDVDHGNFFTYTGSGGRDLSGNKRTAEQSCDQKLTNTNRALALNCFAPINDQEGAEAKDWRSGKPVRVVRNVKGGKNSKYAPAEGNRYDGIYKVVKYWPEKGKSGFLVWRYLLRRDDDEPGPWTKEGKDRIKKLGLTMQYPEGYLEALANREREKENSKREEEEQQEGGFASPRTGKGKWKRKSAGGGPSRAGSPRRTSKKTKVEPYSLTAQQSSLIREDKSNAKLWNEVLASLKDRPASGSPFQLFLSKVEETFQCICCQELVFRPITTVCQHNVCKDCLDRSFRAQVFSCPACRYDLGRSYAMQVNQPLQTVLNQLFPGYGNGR
compound,measurement,setting,value
Cc1ccc(Cl)cc1N1CCN(C(=O)Cc2cn(C)c3ccccc23)CC1,IC50,[1],6.39 µM (not active)
same,CC50,[2],> 40 µM (active)
COc1ccc(/C=N/NC(=O)c2cc(O)c(O)c(O)c2)cc1Cn1cc([N+](=O)[O-])cn1,IC50,[3],92.6 µM (active)
same,IC50,[4],12 µM (active)
same,AC50,[5],0.873 µM (active)
same,AC50,[6],5.22 µM (active)
same,IC50,[7],4.31 µM (active)
same,IC50,[8],> 94.1 µM (inactive)
same,IC50,[9],0.99 µM (active)
same,EC50,[10],30 µM (active)
same,EC50,[11],3.25 µM (active)
same,IC50,[12],> 43.8 µM (inactive)
C[C@@H](O)C#Cc1ccc2c(c1)O[C@H](CN(C)Cc1ccc(-c3ccccc3)cc1)[C@@H](C)CN([C@@H](C)CO)S2(=O)=O,AC50,[13],28.6 µM (active)
same,AC50,[14],4.84 µM (active)
same,AC50,[15],19.4 µM (active)
same,AC50,[16],50.2 µM (active)
same,AC50,[17],> 70 µM (inactive)
same,AC50,[18],51.8 µM (active)
